“Also recorded” adds a separate entry of the source.
Key:
[1] = parameters: method as in PMID 35959805; details: UP0030 study participants, 2 h post dose; cited from earlier work
[2] = Phase 1 PET-CT brain biodistribution study TM0017 (VT, K1, k2); assay type: in vivo, human
Description: A sample size of 2–10 participants was considered sufficient to meet the objectives, whilst limiting radiation exposure.
The preparation of radiopharmaceuticals and execution of PET-CT scans was performed by radiochemists, physicians, and technologists of Invicro (London, UK). Following local anesthesia, a catheter was inserted into the radial artery by an experienced physician; two venous catheters were also inserted. […] Upon administration, dynamic scanning started immediately and continued for 90 min.
Arterial input function data were acquired and processed for all PET scans.
Anatomical regions of interest (ROI) were defined via nonlinear deformation of a template MR image and associated neuroanatomical atlas, to match individual participants’ MR images. These ROI included, but were not limited to: parietal lobe, occipital lobe, frontal lobe, temporal lobe, striatum, cerebellum, thalamus, and the brain stem. Participants’ PET images were registered to their MR images, enabling the individualized ROI to be applied to the dynamic emission data to generate regional time activity curves (TACs). For additional information on the generation of regional TACs, see the electronic supplement.
Phase 1 PET Study in Healthy Male Participants (TM0017)
The TAC and total plasma data were fitted to a single compartment model to determine the influx and efflux constants K1 and k2. Because the plasma free fraction estimate is imprecise, we elected to fit the model using the total (free and bound) arterial concentration input function. The parameters of this model are related to the analogous parameters which would be estimated using an accurate estimate of the free arterial concentration using the equations below. We were able therefore to determine and present the K1 and estimated whole brain total distribution volume (VT), with relatively good repeatability between patients, and the equations below could also be used to relate the overall mean estimates back to the ideal total brain to free plasma minzasolmin (V’T) and unidirectional extraction Eu which can be calculated using the free fraction. The blood volume in the model was fixed at 5%. In this model, radiotracer which is free in tissue, non-specifically bound and specifically bound (i.e. to a target of interest) are lumped together in a single compartment, and so interchange between those states is assumed to be rapid.
The arterial input function used represents the total concentration of parent radiotracer in plasma, with no correction for plasma protein binding and the fitted and observed K1 from this model is lower than the rate of uptake from the free plasma concentration (K’1):
To calculate the Eu from the observed K1 from the model we then need to combine […]
The partition coefficient between total brain and total plasma concentration was determined from the fitted K1 and k2 parameters: […]
and the ratio of total concentration in brain to free concentration in plasma ( V’T) could be […]
Supplemental Fig. 1. Example of HPLC chromatograms (radioactive trace, top; UV trace, bottom) obtained during HPLC analysis of [11C-N-CH3]UCB2713 dose. The time delay

[3] = system: ASYN pathology; details: mouse model of PD, once-daily over 3 months; cited from earlier work
[4] = Plasma free fraction; assay type: in vitro ADME; details: human plasma
[5] = parameters: method as in PMID 35959805; details: cited from earlier work
[6] = system: Caco-2 cell system; parameters: method as in PMID 35959805; details: Caco-2, in vitro; cited from earlier work
[7] = Safety and tolerability in TM0017 (TEAEs, ECG, vital signs)
Description: Other safety variables recorded include changes in 12-lead electrocardiogram (ECG) assessment and changes in vital signs (heart rate, systolic blood pressure, diastolic blood pressure, respiratory rate, and body temperature). Vital signs were measured in supine position following 5 min of rest and clinically significant abnormalities (according to the investigator) were recorded as an AE. All ECG recordings were performed following 5 min of rest in the supine position, in triplicate, with ≥ 1 min between each recording. If any clinically significant abnormalities occurred, an ECG data specialist was to review the recordings.

[8] = Plasma pharmacokinetics after single oral dose in TM0017; assay type: in vivo; details: male, human, TM0017, single oral 360 mg
[9] = UP0030, 90–450 mg single ascending dose
[10] = TM0017, N = 4, single oral dose 360 mg

In the case of CCCC[C@H](Cc1c[nH]c2ccccc12)NC(=O)c1cnc(N2CC[N+](C)([O-])CC2)s1 [N-oxide], the “concentration in CSF, times lower than the parent minzasolmin concentration” value [1] is given as ~ 20 times.

For CCCC[C@H](Cc1c[nH]c2ccccc12)NC(=O)c1cnc(N2CCN(C)CC2)s1 [minzasolmin, N-[(1R)-1-(1H-indol-3-ylmethyl)pentyl]-2-(4-methylpiperazin-1-yl)thiazole-5-carboxamide], the Kp ([2]; male, human, brain/plasma, intravenous, steady-state, from VT, read-out: Kp (total brain to total plasma concentration, partition coefficient)) is given as ~0.5, the “maximum projected human total brain concentration” value ([2]; minzasolmin 360 mg/day dose, with plasma concentrations of UP0077) is given as “up to 1273 ng/mL” and the tolerability [3] is given as “well-tolerated”. For the same molecule, the fraction unbound [4] was ~0.025, the “AUC GeoMean (time zero to infinity)” value [5, 9] was 3225 to 17040 ng·h/mL and the “Cmax GeoMean” value [5, 9] was 374 to 1806 ng/mL. The “tmax Median” value [5, 9] was 1.5 to 2 h, the “apparent terminal elimination half-life, GeoMean range” value ([5]; previous phase 1/1b studies) was 9.3 to 13.1 h and the permeability [6] was “high permeability”. For the same molecule, the “Any TEAEs” value [7, 10] was 3 (75) n (%), the Deaths [7, 10] was 0 n (%) and the “Discontinuations due to TEAEs” value [7, 10] was 0 n (%). The “Drug-related TEAEs” value [7, 10] was 0 n (%), the “Serious TEAEs” value [7, 10] was 0 n (%) and the “Severe TEAEs” value [7, 10] was 0 n (%). The “TEAEs of special interest” value [7, 10] was 0 n (%), the “ECG parameters, vital signs, laboratory parameters” value ([7]; TM0017, healthy male participants) was “No clinically relevant findings in ECG parameters or vital sign measurements; also recorded: no clinically relevant findings in laboratory parameters, vital signs, or ECG recordings” and the “participants reporting TEAEs” value ([7]; TM0017 overall, three out of four participants) was 75%. The AUC ([8]; read-out: AUC GeoMean (time zero to infinity)) was 13200 ng·h/mL, the Cmax ([8]; read-out: Cmax GeoMean) was 1580 ng/mL and the half-life ([8]; read-out: apparent terminal elimination half-life (GeoMean) (converted)) was 11.4 h. The Tmax ([8]; read-out: tmax Median) was 2 h.
